By Ki is commonly meant the equilibrium dissociation constant of an inhibitor or competing ligand from its target. By IC50 is commonly meant the concentration that gives 50% inhibition.

The source of these data is patent US5411983A, “Certain hyrdoxy-phosphinyl-oxy-phenylmethyl-imidazolium hydroxide inner salts as PAF antagonists” (American Cyanamid Company, priority 1993, dated 1995).

Test [1] relates to PAF induced vascular permeability change in mouse skin. Put plainly: Inhibition of PAF induced vascular permeability change in mouse skin. It counts as in vivo, mouse (Hilltop ICR). As to conditions: ip, 0.5 h, test compound i.p., PAF i.d., read-out: Inhibition of Vascular Permeability Lesion (ED50 mg/kg). The method, then: Inhibition of PAF Induced Vascular Permeability Change in Mouse Skin
The rationale for this test is similar to the coinjection test in guinea pigs; however, the test compound was given intraperitoneally rather than coinjected.
Test solutions were prepared as follows: An 80 μg portion of PAF was dissolved in 40 ml of saline to yield a concentration of 2000 ng/ml. A 10 mg portion of histamine diphosphate was dissolved in 100 ml of saline to yield a concentration 100 μg/ml. Test compounds were dissolved in saline and given intraperitoneally (20 mg/kg) 1/2 hour before intradermal challenge with PAF or histamine.
The animals used were Hilltop ICR mice, shaved on their flanks one day before use. The mice were randomly assigned to treated and control groups and were given test compound or saline 1/2 hour before challenge. Each mouse was injected via a tail vein with 0.25 ml of 0.05% Evans' blue dye immediately before the PAF or histamine intradermal injections were made (0.05 ml each), one per side.
Thirty minutes later the animals were killed and the lesions areas measured as described above. Lesion areas in treated animals were expressed as a percent of the control lesions and an ED50 (mg/kg) was calculated from an arcsine area vs. log dose transform.

Test [2] relates to PAF induced vascular permeability change in guinea pig skin.
Excerpt: Platelet Activating Factor (PAF) given intradermally, increases capillary permeability, and plasma proteins (e.g albumin) leak from the vascular space into the interstitial fluids of the skin. If the albumin has been previously stained with Evans' blue dye, the lesion area can be visualized as a blue spot in the .skin. A specific PAF antagonist inhibits the development of increased capillary permeability caused by PAF and reduces the leakage of proteins into the skin. Test compounds were evaluated for non-specific effects by monitoring their ability to inhibit or reduce a histamine induced increase in capillary permeability.
Test Solutions were prepared as follows: Evans' Blue Dye (Sigma E2129) was dissolved in saline to yield a 0.1% w/v solution. A 2 mg/ml stock chloroform solution of PAF (1-phosphotidyl, acetyl-O-alkyl; Sigma P9525) was diluted in saline to give final concentrations of 500 and 250 ng/ml. Saline dilutions were made fresh for each test. Histamine diphosphate solutions (Sigma H7375) were prepared by dissolving 10 mg in 100 ml of saline and diluting to 20 μg/ml with saline. Test compounds were dissolved in ethanol at 10 mg/ml and stored at -70° C. Injection mixtures were made by placing 10 μl of test compound solution into 1.0 ml of either the PAF solutions or the histamine solution.
The animals used were Hartley strain guinea pigs weighing 250-350 g, maintained with food and water ad libitum. The animals were shaved on their back and hind feet one day before use.
Each guinea pig was given an intravenous injection of 2 ml of Evans' blue dye solution into a foot vein. Immediately after, a series of six intradermal injections of 0.1 ml each were given, three on each side of the animal. They were: PAF 50 ng (0.1 ml of a 500 ng/ml solution); PAF 25 ng; and histamine diphosphate 2 μg. The left side injections contain 10 μg of test compound while the right side contain an equivalent amount of the ethanol vehicle to serve as a control.
Thirty minutes later the animals were killed by cervical dislocation and the skin reflected from the back. The lesion areas were approximated as the product of the largest diameter and normal diameter both in mm.
Test [3] concerns the target T1, PAF receptor (Oryctolagus cuniculus, UniProt G1TEI7). Briefly: Inhibition of PAF induced platelet aggregation in rabbit platelet rich plasma (PRP). Format: cell-based, rabbit (male New Zealand White). Set-up: immediately centrifuged at 800 rpm for 10 minutes at room temperature to recover the platelet rich plasma (PRP); endogenous in cells; host or cells: rabbit platelets in platelet rich plasma (male New Zealand White rabbits). The following applies: for IC50: rabbit platelet rich plasma. The procedure: (§1) Platelet activating factor (PAF) compounds were evaluated as PAF receptor antagonists in vitro by measuring inhibition of PAF induced platelet aggregation. Platelet aggregation was measured by a modification of the method of A. Wissner, et. al., J. Med. Chem., 27, 1174, 1984.
(§2) Approximately 120-240 ml of blood were collected by cardiac puncture from unanesthetized male New Zealand White rabbits (Whaley's Summit View Farms, Belvedere, N.J.) with the use of 3.2% sodium citrate anticoagulant (1 part of citrate/10 parts of blood). All syringes and pipets were plastic. The blood was gently mixed and immediately centrifuged at 800 rpm for 10 minutes at room temperature to recover the platelet rich plasma (PRP). Platelet poor plasma (PPP) was prepared by centrifuging PRP at 2800 rpm for 10 minutes at room temperature.
(§3) Dilutions (1:3000) Of PRP in Isoton diluent were made and platelet counts were determined on a Coulter Thrombocounter which was standardized with platelet reference standards (Interscience Platelet Control, Portland, Oreg.). PRP platelet counts were adjusted to 500,000 platelets/μl by the addition of PPP.
(§4) L-PAF was obtained from Calbiochem. A stock solution of 1-2 E-3M was prepared in 10% ethanol in water and serial working dilutions were made using phosphate buffered saline (PBS). 1-2 E-3M stock solutions of test compounds were prepared in 100% methanol and serially diluted in PBS. All solutions were made up in plastic tubes, stored on ice and protected from heat and light. Solutions were prepared fresh or frozen at -20° C. and used within 48 hours.
(§5) Incubation mixtures consisted of 400 μl PRP, 50 μl of PBS diluent or test compound and 50 μl of PAF agonist. More specifically, 400 μl of PRP was stabilized in a cuvette for 1-2 minutes at 37° C. in the aggregometer to achieve a stable baseline, then 50 μl of PBS or test compound, was added and incubated for 5 minutes before addition of the challenge concentration of PAF ([…], as determined from the dose response curve for PAF for that experiment). Aggregation was monitored for 5 minutes. Samples containing test compound or diluent were run simultaneously for comparison. Test compounds were initially evaluated at a screening concentration of 1E-5M. Those producing ≥ 50% inhibition of the magnitude of aggregation were then reevaluated in a dose response fashion (final concentrations 1E-7M to 5E-5M) and IC50 values were determined. Ki values were also calculated in some cases from [formula] where Ki =inhibitory constant
(§6) IC50 =molar concentration of test compound which gives 50% inhibition
(§7) [PAF]=molar concentration of PAF used as challenges
(§8) EC50 =molar concentration of PAF which gives 50% of maximal aggregation.
(§9) The recording equipment consisted of single or dual channel Chronolog aggregometers connected to dual channel 10 MV full scale deflection Omniscribe chart recorders (Houston Instruments). […] The bead suspension was used to set the 0% light transmission mark and clear water was used to set the 100% light transmission mark. These limits defined a full scale deflection. The aggregation traces were analyzed by a digitizing method (C. Kohler and B. Zoltan, J. Pharm. Methods, 12, 113, 1984) with x, y coordinate data stored in a computer file. A suitable program computed parameters of interest such as the magnitude of aggregation.

For test [4], the target named is T1, PAF receptor. Put plainly: Inhibition of PAF induced platelet aggregation in washed rabbit platelets. Details: In some experiments, washed platelets were used instead of PRP; endogenous in cells; host or cells: washed rabbit platelets. Format: cell-based. The following applies: for Ki: calculated from IC50, [PAF] and EC50; for IC50: challenge concentration of PAF 5E9M [sic]. The procedure:
as §1, §2, §3, §4, §5, §6, §7, §8, §9
In some experiments, washed platelets were used instead of PRP. Washed platelet suspensions were prepared as follows. PRP was centrifuged at 2800 rpm for 10 minutes to obtain PPP and a platelet pellet. The pellet was gently suspended and washed in calcium free, albumin free Tyrode's buffer, pH 6.3. The suspension was recentrifuged and the washed pellet was resuspended in normal Tyrodes', buffer (with calcium, but albumin free), pH 7.4. Platelet counts were adjusted to 500,00 platelets/μl.

The next test deals with PAF induced lethality. Put plainly: PAF induced lethality in the mouse. Format: in vivo, mouse (ICR). The following applies: ip, 1 h, mice, test compound i.p. 1/2 hour before PAF i.v., dose that protects 1/2 the animals, read-out: PAF induced Lethality PD50 (mg/kg I.P., 1/2 hour). The method, then: PAF Induced Lethality in the Mouse
Test compounds were evaluated for their ability to prevent death induced by an intravenous injection of a lethal dose of PAF.
ICR mice were given test compounds intraperitoneally as described under Inhibition of PAF Induced Vascular Permeability Change in Mouse Skin, 1/2 hour before an intravenous dose of 100 μg/kg PAF in saline. One hour later the number of dead mice were recorded. Protection was expressed as percent survivors in treated group/percent survivors in control group.

Setting [5] is: IC50 (M) PRP, inhibition of PAF-induced platelet aggregation, PAF challenge 1E-6M.
[6] abbreviates: IC50 (M) PRP, inhibition of PAF-induced platelet aggregation, PAF challenge 1E-7M.
Setting [7] is: IC50 (M) PRP, inhibition of PAF-induced platelet aggregation, PAF challenge 5E-8M.

Structures are written as SMILES. Counter-ions that a name gives are not always drawn.

T1 sequence (G1TEI7 1-342): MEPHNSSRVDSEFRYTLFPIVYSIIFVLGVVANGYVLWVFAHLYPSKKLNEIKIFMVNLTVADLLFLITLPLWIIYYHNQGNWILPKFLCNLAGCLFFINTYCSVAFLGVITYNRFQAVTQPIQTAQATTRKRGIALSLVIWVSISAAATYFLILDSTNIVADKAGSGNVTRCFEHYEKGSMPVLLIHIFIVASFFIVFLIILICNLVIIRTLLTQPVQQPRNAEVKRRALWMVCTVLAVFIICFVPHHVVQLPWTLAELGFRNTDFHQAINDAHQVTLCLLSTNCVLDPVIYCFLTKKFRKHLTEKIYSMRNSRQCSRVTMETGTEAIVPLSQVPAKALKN

As for `CCCCCCCCCCCCCCCCCCNC(=O)OCC(COP(=O)([O-])Oc1cccc(C[n+]2ccsc2)c1)OC` (stereo not drawn) [3-[[3-[(1-Hydroxy-4-methoxy-7-oxo-2,6-dioxa-8-aza-1-phosphahexacosyl)oxy]phenyl]methyl]thiazolium, hydroxide, inner salt P-oxide], the ED50 in test [1] was found to be 6.2 mg/kg. Besides, the “Inhibition of Vascular Permeability Lesion (% of Control)” value (from here on “Inhibition … (% of Control)”) in test [2] is on record as 61.8 % of Control.

`CCCCCCCCCCCCCCCCOCC(COP(=O)([O-])Oc1cccc(C[n+]2ccsc2)c1)OC` (stereo not drawn) [3-[[3-[[[3-(Hexadecyloxy)-2-methoxypropoxy]hydroxyphosphinyl]oxy]phenyl]methyl]thiazolium, hydroxide, inner salt]: the values for the Ki at PAF receptor [3] and on PAF receptor [4] were 490 nM and 8 nM, respectively. For the same compound, the IC50 against PAF receptor [3] (setting [5]) worked out at 4.7e-05 M; on PAF receptor [3] (setting [6]), 1e-06 M; against PAF receptor [3] (setting [7]) it was 9.9e-07 M; against PAF receptor [4], 17 nM. Also, the ED50 in test [1] was 5.6 mg/kg; in the test on PAF induced lethality, under 1.25 mg/kg. Moreover, the “Inhibition … (% of Control)” value in test [2] was 25 % of Control.

Take `CCCCCCCCCCCCOc1cccc(OCC(COP(=O)([O-])Oc2cccc(C[n+]3ccsc3)c2)OC)c1C` (stereo not drawn) [3-[[3-[[[3-[3-(Dodecyloxy)-2-methylphenoxy]-2-methoxypropoxy]hydroxyphosphinyl]oxy]phenyl]methyl]thiazolium, hydroxide, inner salt]: on PAF receptor [3], affinity was put at a Ki of 510 nM. In addition, the values for the IC50 on PAF receptor [3] (setting [5]), against PAF receptor [3] (setting [6]) and against PAF receptor [3] (setting [7]) were 2.4e-05 M, 1.9e-06 M and 2.3e-06 M, respectively. In addition, the ED50 is 8.2 mg/kg in test [1] and under 1.25 mg/kg with PAF induced lethality. The “Inhibition … (% of Control)” value in test [2] was 20.4 % of Control.

Regarding `COC(COc1ccc(OCc2ccccc2)cc1)COP(=O)([O-])Oc1cccc(C[n+]2ccsc2)c1` (stereo not drawn) [3-[[3-[[Hydroxy-2-methoxy-3-[4-(phenylmethoxy)phenoxy]propoxy]phosphinyl]oxy]phenyl]methyl]thiazolium, hydroxide, inner salt], at PAF receptor [3] (setting [7]), half-maximal inhibition (IC50) required 3.3e-05 M. Besides, the ED50 in test [1] is 20 mg/kg; in the test on PAF induced lethality, under 25 mg/kg. Also, the “Inhibition … (% of Control)” value in test [2] was 67 % of Control.

As to `CCCCCCCCCCCCCCc1cccc(OCC(COP(=O)([O-])Oc2cccc(C[n+]3ccsc3)c2)OC)c1` (stereo not drawn) [[[3-[[3-[[Hydroxy[2-methoxy-3-(3-tetradecylphenoxy)propoxy]phosphinyl]oxy]phenyl]methyl]thiazolium, hydroxide, inner salt], the figures for the inhibition constant Ki at PAF receptor [3] and at PAF receptor [4] were 210 nM and 1.4 nM, respectively. The IC50 was found to be 4e-06 M at PAF receptor [3] (setting [5]), 9.5e-07 M on PAF receptor [3] (setting [6]), 8.1e-07 M at PAF receptor [3] (setting [7]) and 9.5 nM against PAF receptor [4]. The figures for the ED50 (in test [1]; with PAF induced lethality) were 5.3 mg/kg and under 1.25 mg/kg, respectively. For the same compound, the “Inhibition … (% of Control)” value in test [2] was 3.8 % of Control.

For the compound `C=C(C)COC(COCCCCCCCCCCCCCCCC)COP(=O)([O-])Oc1cccc(C[n+]2ccsc2)c1` (stereo not drawn) [3-[[3-[[[3-(Hexadecyloxy)-2-[(2-methyl-2-propenyl)oxy]propoxy]hydroxyphosphinyl]oxy]phenyl]methyl]thiazolium, hydroxide, inner salt], the IC50 at PAF receptor [3] (setting [5]) was 3.9e-05 M; on PAF receptor [3] (setting [6]), 2.6e-06 M; at PAF receptor [3] (setting [7]), 2.1e-06 M.

As for `CCCCCCCCCCCCCCc1cccc(OCC(COP(=O)([O-])Oc2cccc(C[n+]3ccccc3)c2)OC)c1` (stereo not drawn) [1-[[3-[[Hydroxy[2-methoxy-3-(3-tetradecylphenoxy)propoxy]phosphinyl]oxy]phenyl]methyl]pyridinium, hydroxide, inner salt], the IC50 at PAF receptor [3] (setting [5]) amounted to 5.3e-05 M; at PAF receptor [3] (setting [6]), 5.4e-06 M; against PAF receptor [3] (setting [7]), 4.1e-06 M.

On to `CCCCCCCCCCCCCCCCOCC(COP(=O)([O-])Oc1cccc(C[n+]2ccccc2)c1)OC` (stereo not drawn) [1-[[3-[[[3-(Hexadecyloxy)-2-methoxypropoxy]hydroxyphosphinyl]oxy]phenyl]methyl]pyridinium, hydroxide, inner salt], for which the values for the IC50 against PAF receptor [3] (setting [5]), against PAF receptor [3] (setting [6]) and against PAF receptor [3] (setting [7]) were 0.00018 M, 1e-05 M and 5.78e-06 to 6e-06 M, respectively.

Consider `CCCCCCCCCCCCCCCCCCOP(=O)([O-])Oc1cccc(C[n+]2ccccc2)c1` [1-[[3-[[Hydroxy(octadecyloxy)phosphinyl]oxy]phenyl]methyl]pyridinium, hydroxide, inner salt], for which the midpoint of inhibition at PAF receptor [3] (setting [7]), the IC50, lay at 4.2e-05 M.

With `CCCCCCCCCCCCCCCCCC(=O)NCC(COCCCCCCCCCCCCCCCC)COP(=O)([O-])Oc1cccc(C[n+]2ccsc2)c1` (stereo not drawn) [3-[[3-[[[(2-[(Hexadecyloxy)methyl]-3-[(1-oxooctadecyl)amino]propoxy]hydroxy-phosphinyl]oxy]phenyl]methyl]thiazolium, hydroxide, inner salt], the IC50 was found to be 0.00013 M at PAF receptor [3] (setting [6]) and 4.8e-05 M at PAF receptor [3] (setting [7]).

Regarding `CCCCCCCCCCOCCOCCOCC(COP(=O)([O-])Oc1cccc(C[n+]2csc(C)c2)c1)OC` (stereo not drawn) [3-[[3-[[1-Hydroxy-4-methoxy-2,6,9,12-tetraoxa-1-phosphadocosyl]oxy]phenyl]-methyl]-5-methylthiazolium, hydroxide, inner salt, P-oxide], the IC50 on PAF receptor [3] (setting [5]) was found to be 9.4e-05 M; against PAF receptor [3] (setting [6]), 3.9e-06 M; on PAF receptor [3] (setting [7]) it was 2.2e-06 M.

As for `CCCCCCCCCCCCCCCCOCC(COCc1cccc(Cn2cc[n+](C)c2)c1)OC` (stereo not drawn) [1-[[3-[[3-(Hexadecyloxy)-2-methoxypropoxy]methyl]phenyl]methyl]-3-methyl-1H-imidazolium, iodide], the IC50 on PAF receptor [3] (PAF challenge 5E-8M, read-out: IC50 (M) PRP, inhibition of PAF-induced platelet aggregation) was found to be 3.4e-06 M; against PAF receptor [4] it was 1500 nM.
